Reference: patent US9045491B2, “Thienyl [3,2-D] pyrimidin-4-one compounds, preparation method, pharmaceutical compositions and use thereof” (SHANGHAI INSTITUTE OF MATERIA MEDICA, CHINESE ACADEMY OF …, priority 2011, dated 2015)

Legend:
Format in all cases: biochemical
human DPP IV = molecular target: T1, human DPP IV (Homo sapiens, UniProt P27487); experiment: DPP IV activity screening (Ala-Pro-AMC fluorescence)
T1 construct: extracellular fragment of protease DPP IV (aa29-766); made in house; host or cells: baculovirus expression system Bac-to-Bac
Method: (§1) Screening method: dipeptidyl peptidase IV (DPP IV) activity screening, dipeptidyl peptidase 7 (DPP 7), dipeptidyl peptidase 8 (DPP 8) activity screening, and dipeptidyl peptidase 9 (DPP 9) activity screening.
Instruments: Microplate Reader (PerkinElmer, USA).
The linear change of fluorescence value at 460 nm in unit time was dynamically measured and DPP IV activity was obtained by calculation.
(§2) Sample treatment: the sample was dissolved in DMSO and stored in low temperature. The concentration of DMSO in the final system was controlled so that the detected activity was not affected.
(§3) The activity of sample was tested under the selected single concentration from preliminary screening, for example, 20 μg/mL. […] The software for calculation was Graphpad Prism 4 and the model used for fitting was sigmoidal dose-response (variable slope). For most inhibitor screening models, the bottom and top of the fitting curve were set to 0 and 100.

[1] = molecular target: dipeptidyl peptidase 7 (DPP 7) (Homo sapiens, UniProt Q9UHL4); experiment: DPP 7 activity screening; conditions: N.I. = No Inhibition
Method: as §1, §2, §3

human DPP 8 = molecular target: T2, human DPP 8 (Homo sapiens, UniProt Q6V1X1); experiment: DPP 8 activity screening (Ala-Pro-AMC fluorescence); conditions: N.I. = No Inhibition
T2 construct: made in house; host or cells: insect cells, baculovirus Bac-to-Bac
Text: as §1
(§4) Materials: human DPP IV, obtained extracellular fragment of protease DPP IV (aa29-766), was expressed and purified by our laboratory using baculovirus expression system Bac-to-Bac (purchased from GIBCO company) in accordance with the conventional experimental technology; human DPP 8 was obtained in insect cells by our laboratory using baculovirus expression system Bac-to-Bac (purchased from GIBCO company) in accordance with the conventional experimental technology; Human DPP 9 was obtained in insect cells by our laboratory using baculovirus expression system Bac-to-Bac (purchased from GIBCO company) in accordance with the conventional experimental technology; and the substrate Ala-Pro-AMC was synthesized by GL Biochem (Shanghai) Ltd.
(§5) Principle of Activity test: DPP IV, DPP 8 and DPP 9 can specifically hydrolyze the substrate Ala-Pro-AMC to form product AMC, and AMC is excited by 355 nm of UV light to generate 460 nm of emission light. The linear change of fluorescence value at 460 nm in unit time was dynamically measured and DPP IV activity was obtained by calculation.
as §2, §3

Human DPP 9 = molecular target: T3, Human DPP 9 (Homo sapiens, UniProt Q86TI2); experiment: DPP 9 activity screening (Ala-Pro-AMC fluorescence); conditions: N.I. = No Inhibition
T3 construct: made in house; host or cells: insect cells, baculovirus Bac-to-Bac
Text: as §1, §4, §5, §2, §3

FAP = molecular target: T4, FAP (Homo sapiens, UniProt Q12884); experiment: FAP inhibition (Table 1); conditions: N.I. = No Inhibition
T4 sequence (Q12884 1-760): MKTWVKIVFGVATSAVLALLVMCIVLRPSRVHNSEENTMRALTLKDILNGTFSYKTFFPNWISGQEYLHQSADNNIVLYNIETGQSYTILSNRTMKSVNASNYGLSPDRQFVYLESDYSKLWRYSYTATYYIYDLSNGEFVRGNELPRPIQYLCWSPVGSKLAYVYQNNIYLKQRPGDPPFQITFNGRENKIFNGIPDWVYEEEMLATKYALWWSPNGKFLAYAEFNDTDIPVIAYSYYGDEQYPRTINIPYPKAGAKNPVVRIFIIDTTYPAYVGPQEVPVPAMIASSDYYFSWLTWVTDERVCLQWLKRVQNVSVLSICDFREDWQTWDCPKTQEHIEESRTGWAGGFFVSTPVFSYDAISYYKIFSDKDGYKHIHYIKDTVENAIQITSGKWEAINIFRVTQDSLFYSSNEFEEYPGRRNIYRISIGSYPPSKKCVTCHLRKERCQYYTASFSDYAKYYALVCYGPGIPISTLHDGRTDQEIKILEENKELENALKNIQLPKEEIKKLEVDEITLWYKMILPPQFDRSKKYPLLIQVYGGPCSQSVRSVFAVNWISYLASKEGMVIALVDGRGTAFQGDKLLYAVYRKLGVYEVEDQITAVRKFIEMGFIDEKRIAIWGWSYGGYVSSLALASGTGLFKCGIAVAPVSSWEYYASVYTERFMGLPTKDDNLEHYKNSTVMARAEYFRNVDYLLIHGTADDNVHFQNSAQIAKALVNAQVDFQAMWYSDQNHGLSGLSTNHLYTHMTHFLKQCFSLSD

T1 sequence (P27487 29-766): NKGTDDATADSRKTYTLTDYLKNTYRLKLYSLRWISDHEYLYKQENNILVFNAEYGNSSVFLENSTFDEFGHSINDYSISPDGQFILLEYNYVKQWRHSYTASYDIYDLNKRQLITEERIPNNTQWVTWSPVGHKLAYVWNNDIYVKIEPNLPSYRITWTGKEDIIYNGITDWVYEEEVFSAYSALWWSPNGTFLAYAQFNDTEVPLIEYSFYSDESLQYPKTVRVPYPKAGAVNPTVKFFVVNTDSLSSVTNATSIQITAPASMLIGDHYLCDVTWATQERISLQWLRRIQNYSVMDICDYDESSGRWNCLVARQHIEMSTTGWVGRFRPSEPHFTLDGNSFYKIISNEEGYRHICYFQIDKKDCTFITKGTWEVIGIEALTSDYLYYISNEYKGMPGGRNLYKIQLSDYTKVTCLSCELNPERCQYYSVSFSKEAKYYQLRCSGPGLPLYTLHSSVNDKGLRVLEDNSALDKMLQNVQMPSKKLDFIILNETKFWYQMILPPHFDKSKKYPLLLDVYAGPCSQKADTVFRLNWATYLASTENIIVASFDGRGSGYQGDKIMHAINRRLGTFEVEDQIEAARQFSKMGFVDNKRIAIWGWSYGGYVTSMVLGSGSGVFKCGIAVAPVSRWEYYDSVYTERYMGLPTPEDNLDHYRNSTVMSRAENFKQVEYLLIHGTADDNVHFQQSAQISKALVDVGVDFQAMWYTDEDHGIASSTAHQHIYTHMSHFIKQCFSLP
T2 sequence (Q6V1X1 whole entry): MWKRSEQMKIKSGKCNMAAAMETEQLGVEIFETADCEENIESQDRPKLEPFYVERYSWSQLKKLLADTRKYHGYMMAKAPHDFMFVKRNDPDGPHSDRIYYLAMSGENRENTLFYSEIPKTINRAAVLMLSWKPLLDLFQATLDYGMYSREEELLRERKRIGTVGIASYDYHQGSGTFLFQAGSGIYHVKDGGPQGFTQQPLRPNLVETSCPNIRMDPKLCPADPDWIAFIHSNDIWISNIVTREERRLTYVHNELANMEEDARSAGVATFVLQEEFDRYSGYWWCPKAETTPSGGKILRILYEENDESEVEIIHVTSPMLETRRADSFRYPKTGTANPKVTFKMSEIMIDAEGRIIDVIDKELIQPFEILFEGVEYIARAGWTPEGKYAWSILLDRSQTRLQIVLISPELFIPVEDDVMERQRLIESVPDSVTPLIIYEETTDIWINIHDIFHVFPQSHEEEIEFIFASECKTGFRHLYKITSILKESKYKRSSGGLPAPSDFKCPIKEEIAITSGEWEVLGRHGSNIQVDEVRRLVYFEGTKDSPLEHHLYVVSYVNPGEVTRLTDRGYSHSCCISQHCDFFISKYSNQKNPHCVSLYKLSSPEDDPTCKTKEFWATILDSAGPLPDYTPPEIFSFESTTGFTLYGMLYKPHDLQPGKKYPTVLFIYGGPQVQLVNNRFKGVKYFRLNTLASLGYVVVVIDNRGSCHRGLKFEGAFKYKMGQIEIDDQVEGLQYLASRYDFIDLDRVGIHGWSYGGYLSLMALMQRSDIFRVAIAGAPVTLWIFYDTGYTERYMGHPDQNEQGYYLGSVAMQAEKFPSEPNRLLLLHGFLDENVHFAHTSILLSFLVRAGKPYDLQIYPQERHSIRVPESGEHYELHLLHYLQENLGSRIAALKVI
T3 sequence (Q86TI2 whole entry): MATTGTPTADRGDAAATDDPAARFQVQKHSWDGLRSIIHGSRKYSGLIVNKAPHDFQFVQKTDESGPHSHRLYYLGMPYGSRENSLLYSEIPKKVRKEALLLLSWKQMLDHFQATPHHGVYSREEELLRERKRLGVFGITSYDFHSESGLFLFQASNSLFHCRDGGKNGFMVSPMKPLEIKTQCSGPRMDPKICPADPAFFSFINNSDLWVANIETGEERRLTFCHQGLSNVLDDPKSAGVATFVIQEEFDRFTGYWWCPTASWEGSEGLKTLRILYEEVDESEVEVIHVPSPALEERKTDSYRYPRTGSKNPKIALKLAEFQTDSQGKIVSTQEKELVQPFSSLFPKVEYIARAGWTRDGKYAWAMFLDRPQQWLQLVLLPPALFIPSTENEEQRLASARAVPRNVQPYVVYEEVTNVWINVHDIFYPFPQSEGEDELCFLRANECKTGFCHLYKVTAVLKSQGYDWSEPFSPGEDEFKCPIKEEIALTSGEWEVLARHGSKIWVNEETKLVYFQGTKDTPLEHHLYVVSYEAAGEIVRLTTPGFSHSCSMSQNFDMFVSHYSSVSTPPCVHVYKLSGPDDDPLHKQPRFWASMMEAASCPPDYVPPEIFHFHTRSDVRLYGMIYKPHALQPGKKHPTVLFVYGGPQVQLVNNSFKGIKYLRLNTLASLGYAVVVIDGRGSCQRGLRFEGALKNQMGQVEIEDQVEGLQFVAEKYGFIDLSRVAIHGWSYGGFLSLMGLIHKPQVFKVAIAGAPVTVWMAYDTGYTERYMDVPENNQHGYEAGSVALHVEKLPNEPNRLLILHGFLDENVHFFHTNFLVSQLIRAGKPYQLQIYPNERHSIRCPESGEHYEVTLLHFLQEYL

SMILES	IC50 (human DPP IV) [µM]	IC50 [1] [µM]	DPP 8 IC50 (human DPP 8)	DPP 9 IC50 (Human DPP 9)	FAP IC50 (FAP)	IC50 (human DPP 8) [µM]	IC50 (Human DPP 9) [µM]	IC50 (FAP) [µM]	DPP 7 IC50 [1]
COC(=O)c1csc2c(=O)n(Cc3ccccc3C#N)c(N3CCC[C@@H](N)C3)nc12 [Compound 57, (R)-methyl 2-(3-aminopiperidin-1-yl)-3-(2-cyanobenzyl)-4-oxo-3,4-dihydrothieno[3,2-d]pyrimidine-7-carboxylate]	0.02	69.5	N.I.	N.I.	N.I.	–	–	–	–
N#Cc1ccccc1Cn1c(N2CCC[C@@H](N)C2)nc2c(C(=O)NCC3CC3)csc2c1=O [Compound 73, (R)-2-(3-aminopiperidin-1-yl)-3-(2-cyanobenzyl)-N-(cyclopropylmethyl)-4-oxo-3,4-dihydrothieno[3,2-d]-pyrimidine-7-carboxamide]	0.00892	159	–	–	–	9.08	66.8	14.6	–
COC(=O)[C@@H](NC(=O)c1csc2c(=O)n(Cc3ccccc3C#N)c(N3CCC[C@@H](N)C3)nc12)C(C)C [Compound 59, (S)-methyl 2-(2-((R)-3-aminopiperidin-1-yl)-3-(2-cyanobenzyl)-4-oxo-3,4-dihydrothieno[3,2-d]pyrimidine-7-carboxamido)-3-methylbutanoate]	0.0266	–	–	–	–	35	187	49.5	N.I.
CCOC(=O)CNC(=O)c1csc2c(=O)n(Cc3ccccc3C#N)c(N3CCC[C@@H](N)C3)nc12 [Compound 58, (R)-ethyl 2-(2-(3-aminopiperidin-1-yl)-3-(2-cyanobenzyl)-4-oxo-3,4-dihydrothieno[3,2-d]pyrimidine-7-carboxamido)acetate]	0.00872	–	–	N.I.	N.I.	14.3	–	–	N.I.
N#Cc1ccccc1Cn1c(N2CCC[C@@H](N)C2)nc2c(C(=O)N3CCCC3)csc2c1=O [Compound 76, (R)-2-((2-(3-aminopiperidin-1-yl)-4-oxo-7-(pyrrolidine-1-carbonyl)thieno-[3,2-d]pyrimidin-3(4H)-yl)methyl)-benzonitrile]	0.0816	–	N.I.	N.I.	N.I.	–	–	–	N.I.
CC(=O)OCc1cc2nc(N3CCC[C@@H](N)C3)n(Cc3ccccc3C#N)c(=O)c2s1 [Compound 96, (R)-(2-(3-aminopiperidin-1-yl)-3-(2-cyanobenzyl)-4-oxo-3,4-dihydrothieno-[3,2-d]pyrimidin-6-yl)methyl acetate]	0.0116	–	N.I.	N.I.	N.I.	–	–	–	N.I.
Cc1ccc(CNC(=O)c2cc3nc(N4CCC[C@@H](N)C4)n(Cc4ccccc4C#N)c(=O)c3s2)cc1 [Compound 122, (R)-2-(3-aminopiperidin-1-yl)-3-(2-cyanobenzyl)-N-(4-methylbenzyl)-4-oxo-3,4-dihydrothieno[3,2-d]-pyrimidine-6-carboxamide]	0.0263	–	N.I.	–	N.I.	–	53.1	–	N.I.
N#Cc1ccccc1Cn1c(N2CCC[C@@H](N)C2)nc2c(CN3CCOCC3)csc2c1=O [Compound 55, (R)-2-((2-(3-aminopiperidin-1-yl)-7-(morpholinomethyl)-4-oxothieno-[3,2-d]pyrimidin-3(4H)-yl)methyl)-benzonitrile]	0.0178	–	N.I.	N.I.	N.I.	–	–	–	N.I.
N#Cc1ccccc1Cn1c(N2CCC[C@@H](N)C2)nc2c(C(=O)NC3CC3)csc2c1=O [Compound 65, (R)-2-(3-aminopiperidin-1-yl)-3-(2-cyanobenzyl)-N-cyclopropyl-4-oxo-3,4-dihydrothieno[3,2-d]pyrimidine-7-carboxamide]	0.0302	–	–	–	–	44.8	137	75.5	N.I.
COC(=O)[C@H](Cc1ccc(O)cc1)NC(=O)c1csc2c(=O)n(Cc3ccccc3C#N)c(N3CCC[C@@H](N)C3)nc12 [Compound 62, (S)-methyl 2-(2-((R)-3-aminopiperidin-1-yl)-3-(2-cyanobenzyl)-4-oxo-3,4-dihydrothieno[3,2-d]pyrimidine-7-carboxamido)-3-(4-hydroxyphenyl)-propanoate]	0.0492	–	–	–	–	12.3	54.8	37.4	N.I.
N#Cc1ccccc1Cn1c(N2CCC[C@@H](N)C2)nc2cc(CO)sc2c1=O [Compound 28, (R)-2-((2-(3-aminopiperidin-1-yl)-6-(hydroxymethyl)-4-oxothieno[3,2-d]-pyrimidin-3(4H)-yl)methyl)benzonitrile]	0.0102	–	–	–	–	27	35.2	85.9	N.I.
N#Cc1ccccc1Cn1c(N2CCC[C@@H](N)C2)nc2cc(C(=O)NC3CCCCC3)sc2c1=O [Compound 119, (R)-2-(3-aminopiperidin-1-yl)-3-(2-cyanobenzyl)-N-cyclohexyl-4-oxo-3,4-dihydrothieno[3,2-d]pyrimidine-6-carboxamide]	0.0206	–	–	N.I.	–	94	–	113	N.I.
N#Cc1ccccc1Cn1c(N2CCC[C@@H](N)C2)nc2c(C#N)csc2c1=O [Compound 83, (R)-2-(3-aminopiperidin-1-yl)-3-(2-cyanobenzyl)-4-oxo-3,4-dihydrothieno-[3,2-d]pyrimidine-7-carbonitrile]	0.0161	38.2	–	N.I.	–	317	–	160	–
CCCCNC(=O)c1csc2c(=O)n(Cc3ccccc3C#N)c(N3CCC[C@@H](N)C3)nc12 [Compound 77, (R)-2-(3-aminopiperidln-1-yl)-N-butyl-3-(2-cyanobenzyl)-4-oxo-3,4-dihydrothieno[3,2-d]pyrimidine-7-carboxamide]	0.0111	30	–	N.I.	–	49.4	–	45.2	–
CC(=O)Nc1csc2c(=O)n(Cc3ccccc3C#N)c(N3CCC[C@@H](N)C3)nc12 [Compound 86, (R)-N-(2-(3-aminopiperidin-1-yl)-3-(2-cyanobenzyl)-4-oxo-3,4-dihydrothieno-[3,2-d]pyrimidin-7-yl)acetamide]	0.0208	–	–	N.I.	–	318	–	121	N.I.
N#Cc1ccccc1Cn1c(N2CCC[C@@H](N)C2)nc2c(C(=O)NC3CCOCC3)csc2c1=O [Compound 81, (R)-2-(3-aminopiperidin-1-yl)-3-(2-cyanobenzyl)-4-oxo-N-(tetrahydro-2H-pyran-4-yl)-3,4-dihydrothieno[3,2-d]-pyrimidine-7-carboxamide]	0.0202	–	–	–	–	59.4	348	44	N.I.
CN1CCN(C(=O)c2csc3c(=O)n(Cc4ccccc4C#N)c(N4CCC[C@@H](N)C4)nc23)CC1 [Compound 70, (R)-2-((2-(3-aminopiperidin-1-yl)-7-(4-methylpiperazine-1-carbonyl)-4-oxothieno[3,2-d]pyrimidin-3(4H)-yl)-methyl)benzonitrile]	0.0186	–	–	–	–	38.9	94.5	136	N.I.
